In patent US20050086714A1, “Eucalyptus transformation method” (AGRIGENESIS BIOSCIENCES LIMITED, priority 2003, published 2005):

Key:
Type in all cases: cell-based, Eucalyptus grandis
[1] = test system: wild type internode explants of E. grandis clone 8 or C101; assay: Effect of kanamycin level on shoot regeneration from wild type explants
Protocol: A range of kanamycin concentrations (0, 5, 10, 15, 20, 30, 40 and 50 mg/l) were then tested in four experiments to determine the minimum level of kanamycin for inhibiting regeneration from the wild type internode explants (Table 5).
Fifty internode explants of the E. grandis clone 8 or C101 were cultured on each of the eight media consisting of EuCo14 supplemented with kanamycin at eight different concentrations, namely 0, 5, 10, 15, 20, 30, 40 and 50 mg/l. […] An excessive level of kanamycin kills non-transformed cells in the explant early in the selection stages. This will reduce the regeneration from transformed cells which would be surrounded by these dead non-transformed cells.

[2] = test system: internode explants of Eucalyptus clone C101 co-cultivated with LBA4404 containing pART69; assay: Effect of kanamycin level on shoot regeneration from co-cultivated explants, Exp I
Protocol: (§1) Internode segment explants were prepared as described in Example 2 above. The explants were placed on a co-cultivation medium in a sideways orientation. The co-cultivation medium was usually EuCo19 (Table 2), although a similar medium could be employed. EuCo19 was based on the regeneration medium EuCo14, supplemented with 100 μM of acetosyringone. In addition, EuCo19 was solidified with gelrite while EuCo14 was solidified with agar. After 50 internode explants were placed on one medium plate, 1-2 μl of Agrobacterium cells were applied to each internode. The plate was then sealed and incubated at 22° C. under low intensity light (300 lux) for three days.
(§2) After 3 days of co-cultivation, the explants were transferred to regeneration/selection medium containing 20-50 mg/l kanamycin and 250 mg/l timentin. In a number of experiments, 10-30 explants from each treatment were taken from the selection medium at day 4 on the medium and tested for transient transgene expression using a GUS staining procedure described in Example 3.6 below.
(§3) In a follow-up experiment, 425 internode explants of the E. grandis clone C101 were co-cultivated with LBA4404 containing the binary vector pART69 and then transferred to selection media containing five different concentrations of kanamycin. The regeneration efficiencies were 100%, 17%, 8%, 3% and 1% from kanamycin concentrations of 0, 20, 30, 40 and 50 mg/l, respectively.

[3] = test system: co-cultivated internode explants of Eucalyptus clone Eg8; assay: Effect of kanamycin level on shoot regeneration from co-cultivated explants, Exp II
Protocol: as §1, §2, §3

Compound: NC[C@H]1O[C@H](O[C@H]2[C@H](O)[C@@H](O[C@H]3O[C@H](CO)[C@@H](O)[C@H](N)[C@H]3O)[C@H](N)C[C@@H]2N)[C@H](O)[C@@H](O)[C@@H]1O [Kanamycin, kanamycin]
- Regeneration Rate ([1]; kanamycin 5 mg/L in EuCo14, Exp 3): 2%
- Regeneration Rate ([1]; kanamycin 5 mg/L in EuCo14, Exp 4): 10%
- Regeneration Rate ([1]; kanamycin 10 mg/L in EuCo14, Exp 3): 0%
- Regeneration Rate ([1]; kanamycin 10 mg/L in EuCo14, Exp 4): 0%
- Regeneration Rate ([1]; kanamycin 15 mg/L in EuCo14, Exp 3): 0%
- Regeneration Rate ([1]; kanamycin 15 mg/L in EuCo14, Exp 4): 0%
- Regeneration Rate ([1]; kanamycin 20 mg/L in EuCo14, Exp 1): 0%
- Regeneration Rate ([1]; kanamycin 20 mg/L in EuCo14, Exp 2): 4%
- Regeneration Rate ([1]; kanamycin 30 mg/L in EuCo14, Exp 1): 0%
- Regeneration Rate ([1]; kanamycin 30 mg/L in EuCo14, Exp 2): 0%
- Regeneration Rate ([1]; kanamycin 40 mg/L in EuCo14, Exp 1): 0%
- Regeneration Rate ([1]; kanamycin 40 mg/L in EuCo14, Exp 2): 0%
- Regeneration Rate ([1]; kanamycin 50 mg/L in EuCo14, Exp 1): 0%
- Regeneration Rate ([1]; kanamycin 50 mg/L in EuCo14, Exp 2): 0%
- Regeneration Rate ([2]; kanamycin 20 mg/l): 17%
- Regeneration Rate ([2]; kanamycin 20 mg/l, listed as kanamycin): 17%
- Regeneration Rate ([2]; kanamycin 30 mg/l): 8%
- Regeneration Rate ([2]; kanamycin 30 mg/l, listed as kanamycin): 8%
- Regeneration Rate ([2]; kanamycin 40 mg/l): 3%
- Regeneration Rate ([2]; kanamycin 40 mg/l, listed as kanamycin): 3%
- Regeneration Rate ([2]; kanamycin 50 mg/l): 1%
- Regeneration Rate ([2]; kanamycin 50 mg/l, listed as kanamycin): 1%
- Regeneration Rate ([3]; kanamycin 20 mg/l): 29%
- Regeneration Rate ([3]; kanamycin 30 mg/l): 12%
- Regeneration Rate ([3]; kanamycin 40 mg/l): 6%
- Regeneration Rate ([3]; kanamycin 50 mg/l): 4%
